From PubChem BioAssay AID2060491 (Molecular Pharmacology Branch, DTP, NCI, 2025)

Test system: 857933-349-R-J2-PDC complex spheroids, viability
Assay: Anticancer human tumor 857933-349-R-J2-PDC patient-derived colon adenocarcinoma cell line growth inhibition [GQUAD]
Conditions: for IC50: curve of first compound; for viability, T/C: stronger effect = lower value
Summary of the method: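 Tumor cells were grown as complex spheroids with HUVEC endothelial cells and mesenchymal stem cells as stroma. G-quadruplex stabilizers were combined with targeted agents over half-log dilutions from near the clinical Cmax, or from 10 microM.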

[1] = second compound 0.0316 µM, first compound 0.0316 µM
[2] = second compound 0.0316 µM, first compound 0.1 µM
[3] = second compound 0.0316 µM, first compound 0.316 µM
[4] = second compound 0.0316 µM, first compound 1 µM
[5] = second compound 0.0316 µM, first compound 3.16 µM
[6] = second compound 0.0316 µM, first compound 10 µM
[7] = second compound 0.1 µM, first compound 0.0316 µM
[8] = second compound 0.1 µM, first compound 0.1 µM
[9] = second compound 0.1 µM, first compound 0.316 µM
[10] = second compound 0.1 µM, first compound 1 µM
[11] = second compound 0.1 µM, first compound 3.16 µM
[12] = second compound 0.1 µM, first compound 10 µM
[13] = second compound 0.316 µM, first compound 0.0316 µM
[14] = second compound 0.316 µM, first compound 0.1 µM
[15] = second compound 0.316 µM, first compound 0.316 µM
[16] = second compound 0.316 µM, first compound 1 µM
[17] = second compound 0.316 µM, first compound 3.16 µM
[18] = second compound 0.316 µM, first compound 10 µM
[19] = second compound 1 µM, first compound 0.0316 µM
[20] = second compound 1 µM, first compound 0.1 µM
[21] = second compound 1 µM, first compound 0.316 µM
[22] = second compound 1 µM, first compound 1 µM
[23] = second compound 1 µM, first compound 3.16 µM
[24] = second compound 1 µM, first compound 10 µM
[25] = second compound 3.16 µM, first compound 0.0316 µM
[26] = second compound 3.16 µM, first compound 0.1 µM
[27] = second compound 3.16 µM, first compound 0.316 µM
[28] = second compound 3.16 µM, first compound 1 µM
[29] = second compound 3.16 µM, first compound 3.16 µM
[30] = second compound 3.16 µM, first compound 10 µM
[31] = second compound 10 µM, first compound 0.0316 µM
[32] = second compound 10 µM, first compound 0.1 µM
[33] = second compound 10 µM, first compound 0.316 µM
[34] = second compound 10 µM, first compound 1 µM
[35] = second compound 10 µM, first compound 3.16 µM
[36] = second compound 10 µM, first compound 10 µM
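Also: spheroids exposed to compounds for one week before readout.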
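For viability, T/C in this document: percent viability relative to vehicle DMSO wells taken as 100%.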

With `O=C(c1cc(Cc2n[nH]c(=O)c3ccccc23)ccc1F)N1CCN(C(=O)C2CC2)CC1` + CN(C)c1ccc(Nc2c3ccc(NC(=O)CCN4CCCC4)cc3nc3cc(NC(=O)CCN4CCCC4)ccc23)cc1 the IC50 (second compound 0.0316 µM) was > 10 µM, the IC50 (second compound 0.1 µM) was > 10 µM and the IC50 (second compound 0.316 µM) was > 10 µM. The IC50 (second compound 1 µM) was > 10 µM, the IC50 (second compound 3.16 µM) was > 10 µM and the IC50 (second compound 10 µM) was > 10 µM. It also gave a viability, T/C [1] of 111%, a viability, T/C [2] of 99.1% and a viability, T/C [3] of 108%. For the same molecule, the viability, T/C [4] was 98.8%, the viability, T/C [5] was 106% and the viability, T/C [6] was 107%. The viability, T/C [7] was 109%, the viability, T/C [8] was 104% and the viability, T/C [9] was 100%. The viability, T/C [10] was 104%, the viability, T/C [11] was 99.8% and the viability, T/C [12] was 108%. The viability, T/C [13] was 103%, the viability, T/C [14] was 99.3% and the viability, T/C [15] was 103%. The viability, T/C [16] was 98.4%, the viability, T/C [17] was 109% and the viability, T/C [18] was 107%. It also gave a viability, T/C [19] of 96%, a viability, T/C [20] of 95.6% and a viability, T/C [21] of 104%. The viability, T/C [22] was 93.7%, the viability, T/C [23] was 109% and the viability, T/C [24] was 98.5%. It also gave a viability, T/C [25] of 91.2%, a viability, T/C [26] of 82% and a viability, T/C [27] of 91.2%. It also gave a viability, T/C [28] of 84%, a viability, T/C [29] of 93.4% and a viability, T/C [30] of 91.8%. The viability, T/C [31] was 73.1%, the viability, T/C [32] was 76.3% and the viability, T/C [33] was 75.4%. It also gave a viability, T/C [34] of 73.2%, a viability, T/C [35] of 80.5% and a viability, T/C [36] of 81.5%.

With `C#Cc1c(F)ccc2cc(O)cc(-c3ncc4c(N5CC6CCC(C5)N6)nc(OCC56CCCN5CC(F)C6)nc4c3F)c12` (stereo unspecified) + Cc1[nH]c2ccc(F)cc2c1-c1nc2c3cccnc3c3ncccc3c2[nH]1 the IC50 (second compound 0.0316 µM) was > 10 µM, the IC50 (second compound 0.1 µM) was > 10 µM and the IC50 (second compound 0.316 µM) was > 10 µM. The IC50 (second compound 1 µM) was > 10 µM, the IC50 (second compound 3.16 µM) was > 10 µM and the IC50 (second compound 10 µM) was > 10 µM. It also gave a viability, T/C [1] of 109%, a viability, T/C [2] of 96.3% and a viability, T/C [3] of 91.9%. It also gave a viability, T/C [4] of 80.7%, a viability, T/C [5] of 74.3% and a viability, T/C [6] of 63.9%. It also gave a viability, T/C [7] of 104%, a viability, T/C [8] of 98.5% and a viability, T/C [9] of 89.2%. For the same molecule, the viability, T/C [10] was 85.2%, the viability, T/C [11] was 71.3% and the viability, T/C [12] was 66.7%. It also gave a viability, T/C [13] of 101%, a viability, T/C [14] of 90.8% and a viability, T/C [15] of 86.3%. It also gave a viability, T/C [16] of 78.4%, a viability, T/C [17] of 81.7% and a viability, T/C [18] of 70.1%. It also gave a viability, T/C [19] of 98.2%, a viability, T/C [20] of 87.5% and a viability, T/C [21] of 93.3%. The viability, T/C [22] was 78.8%, the viability, T/C [23] was 86.7% and the viability, T/C [24] was 75.7%. The viability, T/C [25] was 94.3%, the viability, T/C [26] was 83.2% and the viability, T/C [27] was 81.6%. It also gave a viability, T/C [28] of 73.3%, a viability, T/C [29] of 80.8% and a viability, T/C [30] of 74.3%. It also gave a viability, T/C [31] of 90.4%, a viability, T/C [32] of 93.7% and a viability, T/C [33] of 87%. It also gave a viability, T/C [34] of 79.9%, a viability, T/C [35] of 78.8% and a viability, T/C [36] of 66.8%.

`O=C(NO)c1cnc(N2CCN(S(=O)(=O)c3ccc4ccccc4c3)CC2)nc1` + Cc1cnc(CNC(=O)c2c(=O)c3ccc(N4CCCN(C)CC4)nc3n3c2sc2ccccc23)cn1 was tested, and the IC50 (second compound 0.0316 µM) was 0.538 µM, the IC50 (second compound 0.1 µM) was 0.372 µM and the IC50 (second compound 0.316 µM) was < 0.0316 µM. The IC50 (second compound 1 µM) was < 0.0316 µM, the IC50 (second compound 3.16 µM) was < 0.0316 µM and the IC50 (second compound 10 µM) was < 0.0316 µM. The viability, T/C [1] was 95.5%, the viability, T/C [2] was 79.8% and the viability, T/C [3] was 79.5%. It also gave a viability, T/C [4] of 15.9%, a viability, T/C [5] of 0.04% and a viability, T/C [6] of 0.06%. It also gave a viability, T/C [7] of 65%, a viability, T/C [8] of 69.3% and a viability, T/C [9] of 56%. The viability, T/C [10] was 11.7%, the viability, T/C [11] was 0.05% and the viability, T/C [12] was 0.08%. It also gave a viability, T/C [13] of 19.9%, a viability, T/C [14] of 24.9% and a viability, T/C [15] of 24.2%. For the same molecule, the viability, T/C [16] was 1.65%, the viability, T/C [17] was 0.03% and the viability, T/C [18] was 0.07%. It also gave a viability, T/C [19] of 4.31%, a viability, T/C [20] of 2.8% and a viability, T/C [21] of 1.46%. For the same molecule, the viability, T/C [22] was 0.09%, the viability, T/C [23] was 0.04% and the viability, T/C [24] was 0.07%. For the same molecule, the viability, T/C [25] was 1.32%, the viability, T/C [26] was 0.92% and the viability, T/C [27] was 0.23%. It also gave a viability, T/C [28] of 0.12%, a viability, T/C [29] of 0.08% and a viability, T/C [30] of 0.09%. It also gave a viability, T/C [31] of 0.16%, a viability, T/C [32] of 0.2% and a viability, T/C [33] of 0.2%. The viability, T/C [34] was 0.14%, the viability, T/C [35] was 0.15% and the viability, T/C [36] was 0.18%.
